We go through seven molecules from US20150011483A1, “Inhibition of HIV-1 Infection by Potent Metallocene Conjugated Peptide Through Conformational Entrapment of Envelope GP120” (priority 2007, published 2015).

Data set [1] relates to HIV-1 strain BaL. Put plainly: Inhibition of HIV-1 BaL infection of P4-CCR5 cells (whole virus assay). Type of data set: cell-based.
Excerpt: Infectivity remaining is expressed relative to mock-treated, HIV-1-infected cells.
The test system of data set [2] is HIV-1 strain BaL. Put plainly: Combination of HNG-156 and cyanovirin-N against HIV-1 BaL infection of P4-CCR5 cells. Type of data set: cell-based. Particulars: for IC50, viral infectivity inhibition: HIV-1 BaL, P4-CCR5 cells, combination at constant ratio 1:8.2 by weight, plotted against first-named component. How it is done: Dextran sulfate (DS) was used as a comparative. […] Combination Indexes (CIs) were calculated using the CalcuSyn software. […] CI values were calculated for 50, 75, and 90% HIV inhibition.

A further data set concerns the target T1, HIV-1 YU2 gp120 (Human immunodeficiency virus type 1 group M subtype B, UniProt P35961).
T1 construct: made in house; host or cells: Drosophila S2 cells
Put plainly: SPR direct binding to immobilized YU2 gp120. The protocol:
All surface plasmon resonance experiments (SPR) were performed on a BIA3000 optical biosensor (Biocore, Inc., Uppsala, Sweden). […] For direct binding experiments, YU2 gp120 was immobilized on the surface (˜4000RU); peptide analytes in PBS buffer were passed over the surface at a flow rate of 50 μL/min. with 5 minute association phase and 5 minute dissociation phase. […] The indicated analytes were passed over the surfaces at a flow rate of 50 μL/minute, with 2.5 minute association phase and 2.5 minute dissociation phase.
Data analysis was performed using BIAEvaluation® 4.0 software (Biacore Inc., NJ). The responses of a buffer injection and responses from the control surface to which the mAb 2B6R was immobilized, were subtracted to account for nonspecific binding. Experimental data were fitted to a simple 1:1 Langmuir binding model with a parameter included for mass transport. The average kinetic parameters (association [ka] and dissociation [kd] rates) generated from a minimum of four datasets were used to define equilibrium association (KA) and dissociation constants (KD).

For another data set, the target named is HIV-1 92UG037-08 gp120. Put plainly: SPR direct binding to immobilized 92UG037-08 gp120. Particulars: HIV-1 env 92UG037-08 (A).
Data set [3] concerns the target T2, YU2 gp120 binding to sCD4 (Human immunodeficiency virus type 1 group M subtype B, UniProt P35961).
T2 construct: made in house; host or cells: gp120: Drosophila S2 cells; sCD4: CHO cells
Put plainly: SPR competition: inhibition of YU2 gp120 binding to immobilized sCD4. Details: species or system HIV-1. To be noted: 100 nM YU2 gp120, peptide 10 to 600 nM.
Excerpt: (§1) In one experiment, antibodies b6, b12, or F105 were immobilized on a biosensor CM5 chip.

The target in another data set is T3, YU2 gp120 binding to 17b (Human immunodeficiency virus type 1 group M subtype B, UniProt P35961).
T3 construct: made in house; host or cells: gp120: Drosophila S2 cells
Put plainly: SPR competition: inhibition of YU2 gp120 binding to immobilized 17b. Details: species or system HIV-1. To be noted: 100 nM YU2 gp120, peptide 10 to 600 nM.

Another data set concerns the target T4, gp120 binding to 2G12 (Human immunodeficiency virus type 1 group M subtype B, UniProt P35961).
T4 construct: with a constant concentration (100 nM) of YU2 gp120
As to the kind of experiment: Effect on gp120 binding to antibody 2G12. Details: species or system HIV-1.

The next data set has as its target T5, gp120 binding to sCD4 (Human immunodeficiency virus type 1 group M subtype B, UniProt P35961).
T5 construct: made in house; host or cells: sCD4: CHO cells; gp120 (if YU2): Drosophila S2 cells
Details: species or system HIV-1. To be noted: in the presence of HNG-156.

Data set [4] relates to P4-CCR5 cells. Put plainly: In vitro cytotoxicity, MTT assay. Particulars: concentrations as high as 0.1 mg/ml, 2 hours. Type of data set: cell-based. How it is done:
P4-CCR5 cells were seeded at a density of 4×10^4 cells/well in a 96 well plate approximately 18 hours prior to experiment. […] The cells were subsequently washed and assessed for viability using a 3-(4,5-dimethylthiazol-2-yl)-2,5-diphenyltetrazolium bromide (MTT) assay of viability (previously described in Krebs et al. (1999). Concentrations were tested in triplicate in two independent assays.

The target of a further data set is T6, sCD4 (Homo sapiens, UniProt P01730).
T6 construct: made in house; host or cells: CHO cells
As to the kind of experiment: SPR direct binding of peptide to immobilized sCD4.

A further data set relates to 17b. Put plainly: SPR direct binding of peptide to immobilized 17b.
Data set [5] deals with HIV-1 strain BaL. Particulars: P4-CCR5 cells (Gopi et al., 2008); read-out: IC50, inhibition of infection by HIV-1 BaL; cited from earlier work.
Data set [6] has as its system P4-CCR5 cells. Particulars: at concentrations corresponding to IC50 values; cited from earlier work.

Read-outs that look alike come from different tables or passages of the source.

Excerpt for YU2 gp120 binding to 17b: as §1

Take dextran sulfate [DS]: in the data set on HIV-1 strain BaL [1] (result of one trial), the IC50 is 9800 nM and the “IC50, inhibition of infection by HIV-1 BaL” value was 4.9 µg/mL. Besides, in the data set with HIV-1 strain BaL [2], the “IC50, viral infectivity inhibition” value was 0.900 microgram/milliter.
In turn, `CC[C@H](C)[C@H](NC(=O)[C@@H](N)CCCNC(=N)N)C(=O)N[C@@H](CC(N)=O)C(=O)N[C@@H](CC(N)=O)C(=O)N[C@H](C(=O)N1C[C@@H](n2cc([C]34[CH]5[CH]6[CH]7[CH]3[Fe]6754389%10[CH]4[CH]3[CH]8[CH]9[CH]4%10)nn2)C[C@H]1C(=O)N[C@@H](Cc1c[nH]c2ccccc12)C(=O)N[C@@H](CO)C(=O)N[C@@H](CCC(=O)O)C(=O)N[C@@H](C)C(=O)N[C@@H](CCSC)C(=O)N[C@@H](CCSC)C(N)=O)[C@@H](C)CC` (some centres unmarked) [HNG-156] registered a kd on HIV-1 YU2 gp120 (HIV-1 env YU2, Table 1) of 0.000955 s⁻¹. For the same molecule, the “affinity higher than HNG-105's affinity” value on HIV-1 YU2 gp120 (YU2 gp120) is given as “roughly 3 fold”. Moreover, at HIV-1 92UG037-08 gp120, the Kd amounted to 16.3 nM and the ka was 106000 M⁻¹ s⁻¹. In addition, in [3], the “inhibition of binding of gp120 to sCD4 surface” value is reported as “complete inhibition”. In addition, the “inhibition of binding of gp120 to 17b surface” value on YU2 gp120 binding to 17b is “complete inhibition”. Further, the “effect on the binding of 2G12” value on gp120 binding to 2G12 is recorded as “did not show any effect”. Also, the “reduction of the affinity of CD4” value at gp120 binding to sCD4 is recorded as “reduced by two orders of magnitude”. In addition, in the data set with HIV-1 strain BaL [1] (HIV-1 BaL), the “more effective than HNG-105 in inhibiting infection” value was “approximately 15 fold”. Further, the “effect on P4-CCR5 cell viability” value in the data set with P4-CCR5 cells [4] was “no effect”. Moreover, the “IC50, viral infectivity inhibition” value in the data set on HIV-1 strain BaL [2] is recorded as 0.213 microgram/milliter. Further, the “direct binding to sCD4” value on sCD4 is “no direct binding”. For the same molecule, in the data set on 17b, the “direct binding to 17b” value was “no direct binding”.
RINNIPWSEAMM [HNG-124]: in the data set on HIV-1 strain BaL [5], the IC50 was 418 nM. Further, the “impact on cell viability” value with P4-CCR5 cells [6] is recorded as “no or minimal impact”.
In the case of RINNIPWSEAMM [HNG-137], in the data set on HIV-1 strain BaL [5], the 50% inhibitory concentration (IC50) was 610 nM. Also, the “impact on cell viability” value in the data set with P4-CCR5 cells [6] is on record as “no or minimal impact”.
Turning to RINNIPWSEAMM [HNG-113], the concentration for half-maximal inhibition (IC50) in the data set on HIV-1 strain BaL [5] is 156 nM. Further, in the data set with P4-CCR5 cells [6], the “impact on cell viability” value is “no or minimal impact”.
`CC[C@H](C)[C@H](NC(=O)[C@@H](N)CCCNC(=N)N)C(=O)N[C@@H](CC(N)=O)C(=O)N[C@@H](CC(N)=O)C(=O)N[C@H](C(=O)N1CCC[C@H]1C(=O)N[C@@H](Cc1c[nH]c2ccccc12)C(=O)N[C@@H](CO)C(=O)N[C@@H](CCC(=O)O)C(=O)N[C@@H](C)C(=O)N[C@@H](CCSC)C(=O)N[C@@H](CCSC)C(=O)O)[C@@H](C)CC` [12p1, reference compound]: the IC50 in the data set on HIV-1 strain BaL [5] was 48000 nM.

B1: Cyanovirin-N: 11 kD protein originally isolated from the cyanobacteria Nostoc ellipsosporum, binds gp120 (protein, listed as Nostoc ellipsosporum)
chain: LGKFSQTCYNSAIQGSVLTSTCERTNGGYNTSSIDLNSVIENVDGSLKWQPSNFIETCRNTQLAGSSELAAECKTRAQQFVSTKINLDDHIANIDGTLKYE
modifications: DISULFID (8)..(22) disulfide bond
On to B1, for which, in the data set on HIV-1 strain BaL [2], the “improvement in the efficacy of CV-N in viral inhibition upon addition of HNG-156” value is recorded as approximately 10 fold and the “IC50, viral infectivity inhibition” value is 0.026 microgram/milliter. For the same molecule, the “EC50 Dm” value in the data set on HIV-1 strain BaL [2] (dose at which 50% neutralization occurs) was 0.045 µg/mL.

Broadly, the IC50 is the midpoint of a concentration-inhibition curve. The Kd is a measure of binding affinity in units of concentration.
